Tests used:
[1] = biological target: T1, Protein deacetylase HDAC6 (Homo sapiens, UniProt Q9UBN7); assay: Inhibition of HDAC6 in human HeLa cells assessed as increase in acetyl-tubulin level at 2 uM after 12 hrs by Western blot analysis; assay type: cell-based
T1 sequence (Q9UBN7 whole entry): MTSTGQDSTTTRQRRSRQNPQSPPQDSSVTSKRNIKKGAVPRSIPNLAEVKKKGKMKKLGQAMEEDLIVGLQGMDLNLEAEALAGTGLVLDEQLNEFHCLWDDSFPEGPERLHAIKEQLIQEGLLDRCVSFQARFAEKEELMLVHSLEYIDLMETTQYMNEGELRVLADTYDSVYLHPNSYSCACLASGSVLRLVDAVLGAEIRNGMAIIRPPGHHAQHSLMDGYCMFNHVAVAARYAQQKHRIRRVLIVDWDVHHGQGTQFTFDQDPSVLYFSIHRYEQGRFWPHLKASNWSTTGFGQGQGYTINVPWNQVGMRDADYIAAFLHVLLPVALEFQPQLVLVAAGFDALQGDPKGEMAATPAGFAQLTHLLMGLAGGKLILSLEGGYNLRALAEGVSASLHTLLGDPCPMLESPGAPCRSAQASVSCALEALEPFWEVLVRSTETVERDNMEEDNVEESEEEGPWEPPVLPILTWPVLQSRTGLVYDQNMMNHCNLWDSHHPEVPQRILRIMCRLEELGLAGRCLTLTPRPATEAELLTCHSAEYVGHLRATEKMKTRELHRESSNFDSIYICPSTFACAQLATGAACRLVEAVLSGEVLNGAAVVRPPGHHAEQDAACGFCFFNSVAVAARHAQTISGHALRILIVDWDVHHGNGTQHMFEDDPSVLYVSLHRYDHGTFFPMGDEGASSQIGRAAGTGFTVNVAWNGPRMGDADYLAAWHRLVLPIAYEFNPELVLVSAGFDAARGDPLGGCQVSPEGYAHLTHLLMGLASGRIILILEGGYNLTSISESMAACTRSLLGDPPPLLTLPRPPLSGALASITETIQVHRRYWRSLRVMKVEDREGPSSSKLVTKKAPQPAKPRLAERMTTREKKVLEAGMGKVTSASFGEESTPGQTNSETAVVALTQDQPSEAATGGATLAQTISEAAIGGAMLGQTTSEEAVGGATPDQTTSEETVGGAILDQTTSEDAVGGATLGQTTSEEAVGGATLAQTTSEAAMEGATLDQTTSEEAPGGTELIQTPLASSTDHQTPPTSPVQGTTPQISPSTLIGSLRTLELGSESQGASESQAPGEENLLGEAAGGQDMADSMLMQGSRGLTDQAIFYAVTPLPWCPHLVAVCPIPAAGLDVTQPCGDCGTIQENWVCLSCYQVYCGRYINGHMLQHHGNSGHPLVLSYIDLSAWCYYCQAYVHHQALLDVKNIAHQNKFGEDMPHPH

[2] = biological target: Histone deacetylase (HDAC1 and HDAC2) (Homo sapiens, UniProt Q13547+Q92769); assay: Inhibition of HDAC1/2 in human HeLa nuclear extract using Boc-Lys(acetyl)-AMC as substrate preincubated for 5 mins followed by substrate addition measured after 30 mins by fluorescence assay; assay type: ADME, protein assay
Histone deacetylase 2 = Histone deacetylase 2 (Homo sapiens, UniProt Q92769); assay: Inhibition of HDAC2 (unknown origin) using Boc-Lys(acetyl)-AMC as substrate preincubated for 5 mins followed by substrate addition measured after 30 mins by fluorescence assay; assay type: ADME
Chain of Histone deacetylase 2 (Q92769 whole entry): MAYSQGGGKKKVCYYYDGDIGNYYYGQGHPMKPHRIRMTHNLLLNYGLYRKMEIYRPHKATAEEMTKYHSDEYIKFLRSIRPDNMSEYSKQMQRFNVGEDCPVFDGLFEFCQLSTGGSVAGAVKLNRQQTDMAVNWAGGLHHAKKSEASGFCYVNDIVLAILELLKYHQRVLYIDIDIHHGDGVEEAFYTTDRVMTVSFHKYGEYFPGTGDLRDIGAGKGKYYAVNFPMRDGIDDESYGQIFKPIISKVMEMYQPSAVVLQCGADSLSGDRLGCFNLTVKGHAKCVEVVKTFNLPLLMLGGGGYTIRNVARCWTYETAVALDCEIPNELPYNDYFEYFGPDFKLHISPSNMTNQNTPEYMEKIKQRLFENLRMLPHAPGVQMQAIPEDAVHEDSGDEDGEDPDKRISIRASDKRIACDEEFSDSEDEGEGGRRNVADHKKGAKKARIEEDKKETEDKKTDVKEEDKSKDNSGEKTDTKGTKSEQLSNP

[3] = biological target: T1, Protein deacetylase HDAC6; assay: Inhibition of HDAC6 (unknown origin) using Boc-Lys(acetyl)-AMC as substrate preincubated for 5 mins followed by substrate addition measured after 30 mins by fluorescence assay
Histone deacetylase 8 = biological target: T2, Histone deacetylase 8 (Homo sapiens, UniProt Q9BY41); assay: Inhibition of HDAC8 (unknown origin) using Boc-Lys(trifluoroacetyl)-AMC as substrate preincubated for 5 mins followed by substrate addition measured after 30 mins by fluorescence assay
T2 sequence (Q9BY41 whole entry): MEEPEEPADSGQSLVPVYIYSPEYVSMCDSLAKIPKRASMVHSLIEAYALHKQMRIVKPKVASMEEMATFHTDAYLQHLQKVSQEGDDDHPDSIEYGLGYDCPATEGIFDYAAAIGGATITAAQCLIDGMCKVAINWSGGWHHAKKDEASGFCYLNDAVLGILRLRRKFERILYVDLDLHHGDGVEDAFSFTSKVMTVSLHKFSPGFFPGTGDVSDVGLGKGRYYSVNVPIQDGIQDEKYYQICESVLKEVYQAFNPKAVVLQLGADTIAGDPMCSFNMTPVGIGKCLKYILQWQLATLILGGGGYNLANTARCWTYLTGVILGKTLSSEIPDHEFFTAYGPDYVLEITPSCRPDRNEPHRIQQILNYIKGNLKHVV

Jurkat = assay: Antiproliferative activity against human Jurkat cells after 48 hrs by MTT assay; assay type: functional, cell-based
MOLT-4 = assay: Antiproliferative activity against human MOLT4 cells after 48 hrs by MTT assay; assay type: functional, cell-based; details: MOLT-4, 48 h
[4] = Antiproliferative activity against human SK-N-BE(2) cells after 48 hrs by MTT assay; assay type: functional, cell-based; details: SKNBE2, 48 h
PC-3 = assay: Antiproliferative activity against human PC3 cells after 48 hrs by MTT assay; assay type: functional, cell-based; details: PC-3, 48 h
HeLa = assay: Antiproliferative activity against human HeLa cells after 48 hrs by MTT assay; assay type: functional, cell-based
K562 = assay: Antiproliferative activity against human K562 cells after 48 hrs by MTT assay; assay type: functional, cell-based; details: K562, 48 h
HEL = assay: Antiproliferative activity against human HEL cells after 48 hrs by MTT assay; assay type: functional, cell-based
Homo sapiens [5] = species on record: Homo sapiens; assay: Selectivity ratio of IC50 for HDAC2 (unknown origin) to IC50 for HDAC8 (unknown origin)
Homo sapiens [6] = species on record: Homo sapiens; assay: Selectivity ratio of IC50 for HDAC6 (unknown origin) to IC50 for HDAC8 (unknown origin)
[7] = biological target: Histone deacetylase 1/2/3 (Homo sapiens, UniProt Q13547+O15379+Q92769); assay: Inhibition of HDAC1/2/3 in human HeLa cells assessed as increase in acetyl-histone H4 level at 2 uM after 12 hrs by Western blot analysis

## O=C(CCCCCCC(=O)Nc1ccccc1)NO [VORINOSTAT]
[1]
  inhibition (INH): Active

## O=C(NO)c1cccc(S(=O)(=O)NCCc2ccccc2)c1
[2]
  IC50: > 20 µM
Histone deacetylase 2
  IC50: 11.2 µM
[3]
  IC50: 1.8 µM
Histone deacetylase 8
  IC50: 0.06 µM
Jurkat
  IC50: 7.9 µM
MOLT-4
  IC50: 6.2 µM
[4]
  IC50: 25.5 µM
PC-3
  IC50: > 50 µM
HeLa
  IC50: > 50 µM
K562
  IC50: > 50 µM
HEL
  IC50: 32.8 µM
Homo sapiens [5]
  Ratio IC50: > 180
Homo sapiens [6]
  Ratio IC50: 30
[1]
  inhibition (INH): Not Active
[7]
  INH: Not Active

## O=C(NO)c1cccc(S(=O)(=O)N[C@H](C(=O)Nc2ccc(F)cc2)c2ccccc2)c1
[2]
  IC50: > 20 µM

## C[C@H](NS(=O)(=O)c1cccc(C(=O)NO)c1)C(=O)Nc1ccccc1
[2]
  IC50: > 20 µM
Histone deacetylase 2
  IC50: > 100 µM
[3]
  IC50: 27.7 µM
Histone deacetylase 8
  IC50: 24.2 µM

## O=C(NO)c1cccc(S(=O)(=O)N[C@@H](Cc2c[nH]c3ccccc23)C(=O)Nc2ccc(Cl)cc2)c1
[2]
  IC50: > 20 µM

## O=C(NO)c1cccc(S(=O)(=O)N[C@H](C(=O)NCc2ccccc2)c2ccccc2)c1
[2]
  IC50: > 20 µM
Histone deacetylase 2
  IC50: > 100 µM
[3]
  IC50: 34 µM
Histone deacetylase 8
  IC50: 9.2 µM

## COc1ccc(NC(=O)[C@@H](NS(=O)(=O)c2cccc(C(=O)NO)c2)c2ccccc2)cc1
[2]
  IC50: > 20 µM

## CC(C)[C@H](NS(=O)(=O)c1cccc(C(=O)NO)c1)C(=O)Nc1ccccc1
[2]
  IC50: > 20 µM
Histone deacetylase 2
  IC50: > 100 µM
[3]
  IC50: 40.5 µM
Histone deacetylase 8
  IC50: 33.9 µM

## COc1ccc(Cn2ccc3ccc(C(=O)NO)cc32)cc1
Jurkat
  IC50: 4.5 µM
MOLT-4
  IC50: 9.4 µM
[4]
  IC50: 16.9 µM
PC-3
  IC50: 19.2 µM
HeLa
  IC50: > 25 µM
K562
  IC50: > 25 µM
HEL
  IC50: 10.8 µM

## COc1ccc(NC(=O)[C@H](Cc2c[nH]c3ccccc23)NS(=O)(=O)c2cccc(C(=O)NO)c2)cc1
[2]
  IC50: > 20 µM

## O=C(NO)c1cccc(S(=O)(=O)N[C@@H](Cc2c[nH]c3ccccc23)C(=O)Nc2ccccc2)c1
[2]
  IC50: > 20 µM
Histone deacetylase 2
  IC50: 70.4 µM
[3]
  IC50: 5.9 µM
Histone deacetylase 8
  IC50: 3 µM

## O=C(NO)c1cccc(S(=O)(=O)N[C@@H](Cc2c[nH]c3ccccc23)C(=O)NCc2ccccc2)c1
[2]
  IC50: > 20 µM
Histone deacetylase 2
  IC50: > 100 µM
[3]
  IC50: 24.5 µM
Histone deacetylase 8
  IC50: 19 µM

## CN1CCc2c(c3ccccc3n2Cc2ccc(C(=O)NO)cc2)C1 [TUBASTATIN A]
[1]
  inhibition (INH): Active

## O=C(CNS(=O)(=O)c1cccc(C(=O)NO)c1)Nc1ccccc1
[2]
  IC50: > 20 µM
Histone deacetylase 2
  IC50: > 100 µM
[3]
  IC50: 14.1 µM
Histone deacetylase 8
  IC50: 3.5 µM

## O=C(NO)c1cccc(S(=O)(=O)Nc2ccccc2)c1
[2]
  IC50: > 20 µM
Histone deacetylase 2
  IC50: 14.5 µM
[3]
  IC50: 1.5 µM
Histone deacetylase 8
  IC50: 0.05 µM
Jurkat
  IC50: 28.4 µM
MOLT-4
  IC50: 22.6 µM
PC-3
  IC50: > 50 µM
HeLa
  IC50: > 50 µM
K562
  IC50: > 50 µM
HEL
  IC50: > 50 µM
Homo sapiens [5]
  Ratio IC50: > 180
Homo sapiens [6]
  Ratio IC50: 30
[1]
  inhibition (INH): Not Active
[7]
  INH: Not Active

## O=C(NO)c1cccc(S(=O)(=O)N[C@H](C(=O)Nc2ccc(Cl)cc2)c2ccccc2)c1
[2]
  IC50: > 20 µM

## O=C(NO)c1cccc(S(=O)(=O)N[C@H](C(=O)Nc2ccccc2)c2ccccc2)c1
[2]
  IC50: > 20 µM
Histone deacetylase 2
  IC50: > 100 µM
[3]
  IC50: 6.7 µM
Histone deacetylase 8
  IC50: 0.91 µM

## O=C(/C=C/c1cccc(S(=O)(=O)Nc2ccccc2)c1)NO [BELINOSTAT]
Jurkat
  IC50: 0.07 µM
MOLT-4
  IC50: 0.14 µM
[4]
  IC50: 0.31 µM
HeLa
  IC50: 0.51 µM
HEL
  IC50: 0.1 µM

## O=C(NO)c1cccc(S(=O)(=O)N[C@@H](Cc2c[nH]c3ccccc23)C(=O)Nc2ccc(F)cc2)c1
[2]
  IC50: > 20 µM

## O=C(NO)c1cccc(S(=O)(=O)NCc2ccccc2)c1
[2]
  IC50: > 20 µM
Histone deacetylase 2
  IC50: 47.1 µM
[3]
  IC50: 2.6 µM
Histone deacetylase 8
  IC50: 0.08 µM
Jurkat
  IC50: 12.2 µM
MOLT-4
  IC50: 11.1 µM
[4]
  IC50: 36.2 µM
PC-3
  IC50: > 50 µM
HeLa
  IC50: > 50 µM
K562
  IC50: > 50 µM
HEL
  IC50: > 50 µM
Homo sapiens [5]
  Ratio IC50: > 180
Homo sapiens [6]
  Ratio IC50: 30
[1]
  inhibition (INH): Not Active
[7]
  INH: Not Active
